Data on three compounds can be found in patent publication US7244750B2, “Active substance combinations having insecticidal and acaricidal properties” (Bayer CropScience Aktiengesellschaft, priority 2000, dated 2007).

The test system of the assay is whitefly Bemisia tabaci. As to the kind of experiment: Bemisia test (plant-damaging insects; infested cotton plants immersed in active compound preparation). The class given is in vivo. The note with it: single active compound, eggs, larvae and pupae on cotton plants (Gossypium hirsutum). The method, then: • Bemisia Test • Solvent: 7.5 parts by weight of dimethylformamide Emulsifier: 2.5 parts by weight of alkylaryl polyglycol ether
To produce a suitable preparation of active compound, 1 part by weight of active compound is mixed with the stated amounts of solvent and emulsifier, and the concentrate is diluted with water to the desired concentration.
Cotton plants (Gossypium hirsutum) which are infested with eggs, larvae and pupae of the whitefly Bemisia tabaci are immersed in a preparation of active compound of the desired concentration.
After the desired period of time, the kill in % is determined. 100% means that all animals have been killed; 0% means that none of the animals have been killed.

In the case of `Cc1cc(C)c(C2=C(OC(=O)CC(C)(C)C)C3(CCCC3)OC2=O)c(C)c1` [Ex. (I-b-1)], the “Kill rate in % after 10 d” value (4 ppm) stood at 0% and the “Kill rate in % after 10 d” value (20 ppm) was 80%. As for `CC1=NNC(=O)N(/N=C/c2cccnc2)C1` [Pymetrozin, pymetrozin], the “Kill rate in % after 10 d” value (4 ppm) stood at 0%. `CC(COc1ccc(Oc2ccccc2)cc1)Oc1ccccn1` (stereo not shown) [Pyriproxiphen, pyriproxyfen]: the “Kill rate in % after 10 d” value (20 ppm) was determined as 0%.
